Each structure is given as a SMILES string.

Data set [1] concerns Mus musculus. Briefly: Hypnotic effect in mouse assessed as sleeping time at 50 mg/kg, iv by loss of righting reflex method. The format is functional.
The subject of data set [2] is Mus musculus. Briefly: Hypnotic effect in mouse assessed as sleeping time at 65 mg/kg, ip. The format is functional. To be noted: route intraperitoneal.
The subject of data set [3] is Mus musculus. Briefly: Hypnotic effect in mouse assessed as sleeping time at 100 mg/kg, ip. The format is functional. To be noted: route intraperitoneal.
For data set [4], the system named is Mus musculus. Briefly: Potentiation of thiopental-induced hypnosis in mouse assessed as sleeping time at 50 mg/kg, iv by loss of righting reflex method. The format is functional.
Data set [5] concerns Mus musculus. Briefly: Hypnotic effect in mouse assessed as sleeping time at 100 mg/kg, iv by loss of righting reflex method. The format is functional.
The test system of data set [6] is Mus musculus. Description: Potentiation of thiopental-induced hypnosis in mouse assessed as sleeping time at 200 mg/kg, ip. It is filed as functional. To be noted: route intraperitoneal.
Data set [7] relates to Mus musculus. Description: Hypnotic effect in mouse assessed as sleeping time at 200 mg/kg, ip. It is filed as functional. Particulars: route intraperitoneal.
Data set [8] deals with Mus musculus. Description: Potentiation of thiopental-induced hypnosis in mouse assessed as sleeping time at 100 mg/kg, iv by loss of righting reflex method. The format is functional.
The test system of data set [9] is Mus musculus. Briefly: Acute tolerance in mouse assessed as sleeping time at 200 mg/kg, ip 3 times day after 3 days. It is filed as ADME, organism-based. To be noted: in vivo, 72 h. Details: dose 200 mg/kg, route intraperitoneal.
Data set [10] relates to Mus musculus. Description: Acute tolerance in mouse assessed as sleeping time at 200 mg/kg, ip. The format is ADME, organism-based. Details: dose 200 mg/kg, route intraperitoneal. Particulars: in vivo.
Data set [11] has as its system Mus musculus. Description: Potentiation of thiopental-induced hypnosis in mouse assessed as sleeping time at 100 mg/kg, ip. To be noted: route intraperitoneal. The format is functional.

Regarding `CCCC(C)C1(CC)C(=O)[N-]C(=S)NC1=O.[Na+]` (configuration not stated) [THIOPENTAL SODIUM], the Time was determined as 4.9 min with Mus musculus [1] and 15.2 min in the data set on Mus musculus [2].
Regarding `CCOC(=O)C1=CSC2=NC(=O)CCCN12`, the Time in the data set with Mus musculus [3] worked out at 2.4 min; in the data set with Mus musculus [4] it was 19.9 min; in the data set on Mus musculus [5], 1.48 min; in the data set with Mus musculus [1] it was 0.75 min; with Mus musculus [6], 155.7 min; in the data set on Mus musculus [7], 9.1 min. Also, the Time is 25.7 min with Mus musculus [8], 8.7 min in the data set on Mus musculus [9], 10.3 min in the data set on Mus musculus [10] and 49.2 min in the data set on Mus musculus [11].

For the origin of these results see ChEMBL document CHEMBL1141636, “New ultra-short acting hypnotic: synthesis, biological evaluation, and metabolic profile of ethyl 8-oxo-5,6,7,8-tetrahydro-thiazolo[3,2-a][1,3]diazepin-3-carboxylate (HIE-124)” (Bioorg Med Chem Lett, 2008).
